Experimental data: BindingDB's records for doi:10.1016/j.bmc.2015.01.026 (Virginia Tech, 2015)

Target: Acetylcholinesterase (Homo sapiens, UniProt P22303)
Test: Inhibition of recombinant human AChE
Conditions: read-out: kon (M-1-s-1)

Sequence of Acetylcholinesterase (P22303 whole entry): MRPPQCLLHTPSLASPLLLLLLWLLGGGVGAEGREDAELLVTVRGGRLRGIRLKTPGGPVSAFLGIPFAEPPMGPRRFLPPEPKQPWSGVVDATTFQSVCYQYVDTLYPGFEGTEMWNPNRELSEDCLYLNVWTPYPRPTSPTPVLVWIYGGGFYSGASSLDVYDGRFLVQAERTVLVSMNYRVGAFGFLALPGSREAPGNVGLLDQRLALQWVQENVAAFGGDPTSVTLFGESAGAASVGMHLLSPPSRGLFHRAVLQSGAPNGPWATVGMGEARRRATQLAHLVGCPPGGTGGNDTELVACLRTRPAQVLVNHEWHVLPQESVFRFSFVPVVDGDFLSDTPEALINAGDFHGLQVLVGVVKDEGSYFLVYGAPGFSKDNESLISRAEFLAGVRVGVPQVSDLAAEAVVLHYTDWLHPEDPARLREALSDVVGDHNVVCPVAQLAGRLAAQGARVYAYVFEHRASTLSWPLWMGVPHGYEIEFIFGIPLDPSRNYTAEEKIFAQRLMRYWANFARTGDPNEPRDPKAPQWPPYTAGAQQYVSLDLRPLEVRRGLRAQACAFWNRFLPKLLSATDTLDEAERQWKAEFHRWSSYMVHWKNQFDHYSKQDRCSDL

| SMILES | kon [M⁻¹ s⁻¹] |
| --- | --- |
| CNC(=O)Oc1cccc(C(C)(C)C)c1 | 2100 |
| CCC(C)n1cc(OC(=O)NC)cn1 (stereo not drawn) | 13400 |
| Cc1cc(=O)n(C(=O)N(C)C)o1 | 20.3 |
| CN(C)C(=O)n1oc(C2CC2)cc1=O | 1720 |
| CC(C)c1cc(=O)n(C(=O)N(C)C)o1 | 9350 |
| CN(C)C(=O)n1oc(C2CCC2)cc1=O | 3880 |
| CCC(C)c1cc(=O)n(C(=O)N(C)C)o1 (stereo not drawn) | 36200 |
| CN(C)C(=O)n1oc(C2CCCC2)cc1=O | 11300 |
| CCCC(C)c1cc(=O)n(C(=O)N(C)C)o1 (stereo not drawn) | 51800 |
| CCC(CC)c1cc(=O)n(C(=O)N(C)C)o1 | 33200 |
| CC(C)Cc1cc(=O)n(C(=O)N(C)C)o1 | 515 |
| CCC(C)Cc1cc(=O)n(C(=O)N(C)C)o1 (stereo not drawn) | 1870 |
| CC(C)CCc1cc(=O)n(C(=O)N(C)C)o1 | 1350 |
| CN(C)C(=O)n1oc(CCC2CC2)cc1=O | 2400 |
| CN(C)C(=O)n1oc(CCC2CCC2)cc1=O | 1240 |
| CN(C)C(=O)n1oc(CCC2CCCC2)cc1=O | 1530 |
| CCCC(C)c1cc(=O)n(C(=O)N2CCC2)o1 (stereo not drawn) | 31000 |
| CCCC(C)c1cc(=O)n(C(=O)N(C)CC)o1 (stereo not drawn) | 18000 |
| CCCC(C)c1cc(=O)n(C(=O)N(CC)CC)o1 (stereo not drawn) | 3000 |
| CCCC(C)c1cc(=O)n(C(=O)N2CCCC2)o1 (stereo not drawn) | 6320 |
| CCCC(C)c1cc(=O)n(C(=O)N2CCOCC2)o1 (stereo not drawn) | 433 |
| Cc1cc(OC(=O)N(C)C)no1 | 1.97 |

| SMILES | kon [M⁻¹ s⁻¹] |
| --- | --- |
| CN(C)C(=O)Oc1cc(C2CC2)on1 | 33.7 |
| CC(C)c1cc(OC(=O)N(C)C)no1 | 74.3 |
| CN(C)C(=O)Oc1cc(C2CCC2)on1 | 31 |
| CCC(C)c1cc(OC(=O)N(C)C)no1 (stereo not drawn) | 1000 |
| CN(C)C(=O)Oc1cc(C2CCCC2)on1 | 77 |
| CCCC(C)c1cc(OC(=O)N(C)C)no1 (stereo not drawn) | 848 |
| CCC(CC)c1cc(OC(=O)N(C)C)no1 | 151 |
| CCCCC(CC)c1cc(OC(=O)N(C)C)no1 (stereo not drawn) | 35.5 |
| CC(C)Cc1cc(OC(=O)N(C)C)no1 | 26.5 |
| CCC(C)Cc1cc(OC(=O)N(C)C)no1 (stereo not drawn) | 28.3 |
| CN(C)C(=O)Oc1cc(CC(C)(C)C)on1 | 7.33 |
| CC(C)CCc1cc(OC(=O)N(C)C)no1 | 31.8 |
| CN(C)C(=O)Oc1cc(CCC2CC2)on1 | 138 |
| CN(C)C(=O)Oc1cc(CCC2CCC2)on1 | 121 |
| CN(C)C(=O)Oc1cc(CCC2CCCC2)on1 | 218 |
| CCCC(C)c1cc(OC(=O)N(C)CC)no1 (stereo not drawn) | 152 |
| CCCC(C)c1cc(OC(=O)N2CCCC2)no1 (stereo not drawn) | 27 |
| CCCC(C)c1cc(OC(=O)N2CCOCC2)no1 (stereo not drawn) | 44.7 |
| CNC(=O)Oc1cccc2c1OC(C)(C)O2 [CHEBI:34556] | 1850 |
| CNC(=O)Oc1cccc2c1OC(C)(C)C2 [CHEBI:34611] | 7130 |
| CNC(=O)Oc1ccccc1OC(C)C [CHEBI:34938] | 283 |
